Experimental data as given in patent publication US8785429B2, “Dihydropyrrolonaphthyridinone compounds as inhibitors of JAK” (Takeda Pharmaceutical Company Limited, priority 2009, dated 2014).

Assays:
JAK3 = target: T1, JAK3 (Homo sapiens, UniProt P52333); assay: Assay for JAK3 Inhibition (phosphorylation of FAM-labeled substrate, Caliper LC-3000); assay type: biochemical; settings: −log10(IC50), IC50 is the molar concentration at 50% inhibition; read-out: JAK3 pIC50 (converted)
T1 construct: purchased Invitrogen
T1 sequence (P52333 1-1124): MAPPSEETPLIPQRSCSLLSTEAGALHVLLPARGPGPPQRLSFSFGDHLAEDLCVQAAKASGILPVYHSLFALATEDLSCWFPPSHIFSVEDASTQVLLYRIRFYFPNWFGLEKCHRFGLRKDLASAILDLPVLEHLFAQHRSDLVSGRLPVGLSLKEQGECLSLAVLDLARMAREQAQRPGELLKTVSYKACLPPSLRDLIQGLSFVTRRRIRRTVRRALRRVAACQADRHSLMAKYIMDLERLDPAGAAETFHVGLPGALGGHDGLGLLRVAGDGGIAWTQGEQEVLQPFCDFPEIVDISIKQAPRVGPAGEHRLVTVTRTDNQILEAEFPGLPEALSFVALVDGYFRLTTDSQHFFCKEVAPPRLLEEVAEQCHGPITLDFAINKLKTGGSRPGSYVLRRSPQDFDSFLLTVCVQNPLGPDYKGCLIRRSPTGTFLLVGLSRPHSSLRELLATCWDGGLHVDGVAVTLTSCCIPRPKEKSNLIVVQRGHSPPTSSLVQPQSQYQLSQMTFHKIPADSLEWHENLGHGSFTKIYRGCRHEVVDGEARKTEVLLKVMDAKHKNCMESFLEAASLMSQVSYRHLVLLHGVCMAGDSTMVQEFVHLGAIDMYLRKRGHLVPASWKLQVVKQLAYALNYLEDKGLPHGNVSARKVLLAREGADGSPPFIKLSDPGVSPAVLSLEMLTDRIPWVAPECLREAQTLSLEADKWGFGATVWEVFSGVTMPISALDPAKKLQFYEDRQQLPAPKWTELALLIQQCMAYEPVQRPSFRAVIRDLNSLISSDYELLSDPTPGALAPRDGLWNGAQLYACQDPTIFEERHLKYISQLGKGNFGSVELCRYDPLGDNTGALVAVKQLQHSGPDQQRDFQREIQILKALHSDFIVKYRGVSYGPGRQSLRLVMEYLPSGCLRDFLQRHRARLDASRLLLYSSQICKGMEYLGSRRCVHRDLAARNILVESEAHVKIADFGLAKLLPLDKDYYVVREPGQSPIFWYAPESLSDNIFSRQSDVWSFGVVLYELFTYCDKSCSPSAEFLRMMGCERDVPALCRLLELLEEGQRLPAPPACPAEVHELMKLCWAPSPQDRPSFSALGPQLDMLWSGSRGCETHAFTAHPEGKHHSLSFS
Protocol: (§1) A compound's ability to inhibit JAK activity may be assessed using a variety of methods, including in vitro and in vivo assays. The following in vitro assays measure a test compound's ability to inhibit JAK2- and JAK3-mediated phosphorylation of FAM-labeled JAK-specific substrates.
(§2) Purified JAK2 and JAK3 proteins were purchased from Invitrogen. JAK2 and JAK3 inhibition is determined using a black 384-well-plate format in buffer containing 50 mM HEPES, 10 mM NaCl, 10 mM MgCl2, 0.2 mM EDTA, 0.01% EDA (Brij® 35), 1 mM DTT, 0.1 mg/mL BSA at pH 7.3. Each test compound is prepared in DMSO using 2-fold serial dilutions for 11 data points and is added to the buffer so that each dilution contains 3% DMSO.
(§3) To each well is added 2 μL of 3 μM 5FAM-KKKKEEIYFFFG-NH2 and 15 μM ATP (in buffer), 2 μL of diluted test compound (3% DMSO in medium), and 2 μL of 1.2 nM JAK3 in buffer. The reaction mixture is incubated at room temperature for 60 min and is quenched by adding 50 mM HEPES, 30 mM EDTA, and 0.1% Tx-100 (pH 7.3). To quantify the fluorescent-labeled substrate and product following reaction, the test plate is loaded on a Caliper LC-3000, which measures percent of conversion by microfluidic-based separation.
(§4) Corresponding IC50 values are calculated by non-linear curve fitting of the compound concentrations and percent of inhibition to the standard IC50 equation.

JAK2 = target: T2, JAK2 (Homo sapiens, UniProt O60674); assay: Assay for JAK2 Inhibition (phosphorylation of FAM-labeled substrate, Caliper LC-3000); assay type: biochemical; settings: −log10(IC50), IC50 is the molar concentration at 50% inhibition; read-out: JAK2 pIC50 (converted)
T2 construct: purchased Invitrogen
T2 sequence (O60674 whole entry): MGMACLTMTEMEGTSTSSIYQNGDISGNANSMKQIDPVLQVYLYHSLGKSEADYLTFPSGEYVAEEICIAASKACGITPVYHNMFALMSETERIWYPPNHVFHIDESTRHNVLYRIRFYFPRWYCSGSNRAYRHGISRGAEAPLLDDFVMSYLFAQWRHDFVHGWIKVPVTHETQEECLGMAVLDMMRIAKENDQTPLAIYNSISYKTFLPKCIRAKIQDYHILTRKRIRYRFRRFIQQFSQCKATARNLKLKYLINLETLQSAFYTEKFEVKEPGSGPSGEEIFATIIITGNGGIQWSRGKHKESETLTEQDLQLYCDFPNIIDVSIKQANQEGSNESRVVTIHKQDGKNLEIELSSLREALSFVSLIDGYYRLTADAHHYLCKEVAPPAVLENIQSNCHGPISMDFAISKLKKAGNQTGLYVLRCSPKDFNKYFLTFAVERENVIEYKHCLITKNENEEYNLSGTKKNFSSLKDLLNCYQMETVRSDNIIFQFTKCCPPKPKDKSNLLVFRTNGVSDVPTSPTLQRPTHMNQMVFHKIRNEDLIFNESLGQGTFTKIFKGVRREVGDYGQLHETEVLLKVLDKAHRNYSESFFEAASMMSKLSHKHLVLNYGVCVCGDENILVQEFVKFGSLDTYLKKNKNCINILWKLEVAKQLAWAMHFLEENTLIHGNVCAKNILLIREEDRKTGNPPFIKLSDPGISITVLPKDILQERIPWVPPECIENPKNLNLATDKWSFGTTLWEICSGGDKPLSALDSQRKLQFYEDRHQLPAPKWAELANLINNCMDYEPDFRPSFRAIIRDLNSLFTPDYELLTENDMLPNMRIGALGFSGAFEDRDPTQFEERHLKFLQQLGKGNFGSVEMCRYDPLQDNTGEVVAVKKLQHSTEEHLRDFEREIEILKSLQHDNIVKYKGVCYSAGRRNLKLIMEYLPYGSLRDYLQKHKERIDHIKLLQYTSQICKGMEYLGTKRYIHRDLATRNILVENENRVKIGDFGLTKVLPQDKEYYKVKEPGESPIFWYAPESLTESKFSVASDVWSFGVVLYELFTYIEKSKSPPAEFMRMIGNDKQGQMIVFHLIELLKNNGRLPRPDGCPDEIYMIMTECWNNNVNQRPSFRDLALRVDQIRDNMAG
Protocol: as §1, §2
as §3, with “45” for “15”, “0.6” for “1.2”, “JAK2” for “JAK3”, “HEPeX,” for “HEPES,”
as §4

IC50 (JAK3)	IC50 (JAK2)	SMILES
31.6 nM	794 nM	CC(C#N)NC(=O)[C@@H](C(C)C)N1Cc2c(F)cnc3[nH]cc(c23)C1=O (stereo partly drawn) [Example 75, (2R)—N-(1-cyanoethyl)-2-(6-fluoro-3-oxopyrrolo[4,3,2-de][2,6]naphthyridin-4(1H,3H,5H)-yl)-3-methylbutanamide]
158 nM	3160 nM	CC(C)(O)[C@H](C(=O)NC1CCCC1)N1Cc2ccnc3[nH]cc(c23)C1=O [Example 29, (R)—N-cyclopentyl-3-hydroxy-3-methyl-2-(3-oxopyrrolo[4,3,2-de][2,6]naphthyridin-4(1H,3H,5H)-yl)butanamide]
3980 nM	20000 nM	CC[C@H](C(=O)NCC1CC1)N1Cc2ccnc3[nH]cc(c23)C1=O [Example 66, (R)—N-(cyclopropylmethyl)-2-(3-oxopyrrolo[4,3,2-de][2,6]naphthyridin-4(1H,3H,5H)-yl)butanamide]
631 nM	10000 nM	CC[C@H](C(=O)N1CCC(O)C1)N1Cc2ccnc3[nH]cc(c23)C1=O (stereo partly drawn) [Example 56, 4-((2R)-1-(3-hydroxypyrrolidin-1-yl)-1-oxobutan-2-yl)-4,5-dihydropyrrolo[4,3,2-de][2,6]naphthyridin-3(1 H)-one]
7940 nM	3160 nM	CC(C)(C)OC(=O)N1CCC(CN2Cc3c[nH]c4nccc(c34)C2=O)C1 (stereo not drawn) [Example 12, Tert-Butyl 3-((5-oxopyrrolo[4,3,2-de][2,6]naphthyridin-4(1H,3H,5H)-yl)methyl)pyrrolidine-1-carboxylate]
200 nM	1580 nM	O=C(NC1CCCC1)[C@@H](C1CC1)N1Cc2ccnc3[nH]cc(c23)C1=O [Example 25, (R)—N-cyclopentyl-2-cyclopropyl-2-(3-oxopyrrolo[4,3,2-de][2,6]naphthyridin-4(1H,3H,5H)-yl)acetamide]
39.8 nM	794 nM	CC(C)[C@H](C(=O)N1CCC(C#N)C1)N1Cc2c(Cl)cnc3[nH]cc(c23)C1=O (stereo partly drawn) [Example 33, 1-((R)-2-(6-chloro-3-oxopyrrolo[4,3,2-de][2,6]naphthyridin-4(1H,3H,5H)-yl)-3-methylbutanoyl)pyrrolidine-3-carbonitrile]
15.8 nM	398 nM	CC(C)[C@H](C(=O)N1CC(C(F)F)C1)N1Cc2c(F)cnc3[nH]cc(c23)C1=O [Example 80, (R)-4-(1-(3-(difluoromethyl)azetidin-1-yl)-3-methyl-1-oxobutan-2-yl)-6-fluoro-4,5-dihydropyrrolo[4,3,2-de][2,6]naphthyridin-3(1H)-one]
1000 nM	12600 nM	CC[C@H](C(=O)N1CCN(C)CC1)N1Cc2ccnc3[nH]cc(c23)C1=O [Example 55, (R)-4-(1-(4-methylpiperazin-1-yl)-1-oxobutan-2-yl)-4,5-dihydropyrrolo[4,3,2-de][2,6]naphthyridin-3(1 H)-one]
2510 nM	20000 nM	CC[C@H](C(=O)N(C)CC(C)C)N1Cc2ccnc3[nH]cc(c23)C1=O [Example 68, (R)—N-isobutyl-N-methyl-2-(3-oxopyrrolo[4,3,2-de][2,6]naphthyridin-4(1H,3H,5H)-yl)butanamide]
100 nM	2000 nM	CC(C)[C@H](C(=O)NOCC1CC1)N1Cc2c(F)cnc3[nH]cc(c23)C1=O [Example 49, (R)—N-(cyclopropylmethoxy)-2-(6-fluoro-3-oxopyrrolo[4,3,2-de][2,6]naphthyridin-4(1H,3H,5H)-yl)-3-methylbutanamide]
3.98 nM	50.1 nM	CC(C)(C)[C@H](C(=O)N1CC(C#N)C1)N1Cc2c(Cl)cnc3[nH]cc(c23)C1=O [Example 41, (R)-1-(2-(6-chloro-3-oxopyrrolo[4,3,2-de][2,6]naphthyridin-4(1H,3H,5H)-yl)-3,3-dimethylbutanoyl)azetidine-3-carbonitrile]
12.6 nM	251 nM	CC(C)[C@H](C(=O)N1CC(C)(C#N)C1)N1Cc2ccnc3[nH]cc(c23)C1=O [Example 53, (R)-3-methyl-1-(3-methyl-2-(3-oxopyrrolo[4,3,2-de][2,6]naphthyridin-4(1H,3H,5H)-yl)butanoyl)azetidine-3-carbonitrile]
501 nM	10000 nM	CC[C@H](C(=O)NCC(C)(C)O)N1Cc2ccnc3[nH]cc(c23)C1=O [Example 70, (R)—N-(2-hydroxy-2-methylpropyl)-2-(3-oxopyrrolo[4,3,2-de][2,6]naphthyridin-4(1H,3H,5H)-yl)butanamide]
794 nM	7940 nM	CC[C@H](C(=O)NCC1CCCO1)N1Cc2ccnc3[nH]cc(c23)C1=O (stereo partly drawn) [Example 74, (2R)-2-(3-oxopyrrolo[4,3,2-de][2,6]naphthyridin-4(1H,3H,5H)-yl)-N-((tetrahydrofuran-2-yl)methyl)butanamide]
79.4 nM	1580 nM	CC[C@H](C(=O)NC1CCCC1)N1Cc2ccnc3[nH]cc(c23)C1=O [Example 57, (R)—N-cyclopentyl-2-(3-oxopyrrolo[4,3,2-de][2,6]naphthyridin-4(1H,3H,5H)-yl)butanamide]
63.1 nM	1580 nM	CC(C)[C@H](C(=O)N1CCS(=O)(=O)C1)N1Cc2c(F)cnc3[nH]cc(c23)C1=O [Example 77, (R)-4-(1-(1,1-dioxidothiazolidin-3-yl)-3-methyl-1-oxobutan-2-yl)-6-fluoro-4,5-dihydropyrrolo[4,3,2-de][2,6]naphthyridin-3(1H)-one]
63.1 nM	1580 nM	CC[C@@H](CC#N)NC(=O)[C@@H](C(C)C)N1Cc2c(Cl)cnc3[nH]cc(c23)C1=O [Example 37, (R)-2-(6-chloro-3-oxopyrrolo[4,3,2-de][2,6]naphthyridin-4(1H,3H,5H)-yl)-N—((S)-1-cyanobutan-2-yl)-3-methylbutanamide]
126 nM	1580 nM	CC(C)[C@H](C(=O)NC1CCOC1)N1Cc2c(F)cnc3[nH]cc(c23)C1=O (stereo partly drawn) [Example 44, (2R)-2-(6-fluoro-3-oxopyrrolo[4,3,2-de][2,6]naphthyridin-4(1H,3H,5H)-yl)-3-methyl-N-(tetrahydrofuran-3-yl)butanamide]
5.01 nM	158 nM	CC(C)[C@H](C(=O)N1CC(C#N)(CF)C1)N1Cc2ccnc3[nH]cc(c23)C1=O [Example 51, (R)-3-(fluoromethyl)-1-(3-methyl-2-(3-oxopyrrolo[4,3,2-de][2,6]naphthyridin-4(1H,3H,5H)-yl)butanoyl)azetidine-3-carbonitrile]
12.6 nM	5.01 nM	CCC1(N2Cc3c[nH]c4nccc(c34)C2=O)CCN(c2ccncn2)CC1 [Example 17, 4-(4-ethyl-1-(pyrimidin-4-yl)piperidin-4-yl)-3,4-dihydropyrrolo[4,3,2-de][2,6]naphthyridin-5(1H)-one]
